Measured values published in US7767817B2, “Water soluble boronic acid fluorescent reporter compounds and methods of use thereof” (priority 2003, dated 2010).
Read-outs that look alike come from different tables or passages of the source.

Key:
[1] = Fluorescence binding study with glucose
Method: (§1) For a typical sugar-BTBA fluorescent measurement, a 1.0×10^−5 M stock solution of BTBA in 0.10 M phosphate buffer at pH 7.4 was made as solution A. […] Solution B was titrated into solution A in order to make mixtures with a constant concentration of BTBA and a range of concentrations of the sugar. Each mixture was allowed to stand for at least 10 min, then 3.0 mL of the mixture was transferred into a cuvette for fluorescence measurement.
(§2) The association constants (Ka) were determined according to the method III in Valeur's publication (J. Phys. Chem. 1988, 92, 6233).

[2] = Fluorescence binding study with galactose
Method: as §1, §2

[3] = Fluorescence quantum yield; assay type: physicochemical
Method: The effect of various carbohydrates on the fluorescent properties of compound 1 was determined in phosphate buffer at pH 7.4. The emission spectral change of 1 with fructose at different concentrations in 0.1 M aqueous phosphate buffer (pH 7.4) is shown in FIG. 4. A 41-fold emission intensity increase is observed in presence of 50 mM fructose. To the best of our knowledge, such a large emission intensity increase has never been reported for boronic acid-based saccharide sensors involving the ICT mechanism. The quantum yields of 1 in the absence (φF=0.010) and in the presence of 50 mM fructose (φF=0.42) in 0.1 M phosphate buffer (pH 7.4) were obtained using 8-quinoline boronic acid (φF=0.58 in 12 M H2SO4) as a reference compound.
For example, addition of fructose (50 mM) to the solution of 7 induced a 36-fold fluorescence intensity increase at 433 nm and a 0.55-fold fluorescence intensity decrease at 513 nm (FIG. 14). […] To the best of our knowledge, such large emission intensity changes at two wavelengths have never been reported for boronic acid-based saccharide sensors. The quantum yields (φF) of 7 were determined as 0.07 at 513 nm in 0.1 M phosphate buffer (pH 7.4) in the absence of a sugar and 0.23 at 433 nm in the presence of 50 mM of fructose, using 8-quinoline boronic acid (φF=0.58 in 12 M H2SO4) as a reference compound.

[4] = Fluorescence binding study with sorbitol
Method: as §1, §2

[5] = Fluorescence intensity pH profile (apparent pKa); assay type: physicochemical
Description: Since the fluorescence intensity increase upon binding with a sugar seems to be a general phenomenon, the fluorescence change mechanism of compound 5 at pH 7.4 was investigated. For this purpose, the fluorescence pH profiles of both compound 5 alone and compound 5 in the presence of fructose (0.5 M) were studied. The fluorescence intensity of 5 at 334 nm in the absence of sugars decreased upon changing the pH from 3 to 12 (FIG. 3). An apparent pKa of 7.0 was observed, which is assigned to the boronic acid moiety. […] It is well-known that the binding of a diol to boronic acid often lowers the pKa of the boron species) (Springsteen, G.; Wang, B. Tetrahedron 2002, 58, 5291-5300). Therefore, the pKa, which drops from 7.0 to 4.0, can also be reasonably assigned to boron. […] It seems that the fluorescence intensity change of compound 5 is also due to diol's perturbation as that of 8-quinolineboronic acid.
To examine the relationship between the fluorescence intensity changes and the boron ionization states, the pH profile of the fluorescence intensity in the absence and presence of fructose and glucose at a fixed concentration (50 mM) was also studied (FIG. 6). […] It is worth mentioning that the pKa of the protonated dimethyl amino group of 1 is […] the emission wavelength of 1 with the protonated dimethyl amino group at low pH is about 238 nm. Therefore, the fluorescence intensity of 1 at 445 nm was not affected by the protonated dimethyl amino group. The fluorescence intensity changes correspond to the boronic acid pKa (9.4) and therefore hybridization changes, which was responsible for the fluorescence intensity changes observed.
Since the fluorescence intensity increase upon binding with a sugar seems to be a general phenomenon, next the conditions under which optimal fluorescence intensity changes are observed upon addition of a sugar was investigated. For this purpose, the fluorescence pH profiles of both compound 6 alone and in the presence of fructose (0.5 M) were studied. The fluorescence intensity of 6 in the absence of sugars increased by 17-fold upon changing the pH from 3 to 12 (FIG. 10). […] Furthermore, one would expect the pKa values of the other two ionizable groups, the carboxylic acid and the quinolinium groups, to be less than 7. Therefore, assigning the pKa at 7.9 to the boronic acid moiety is the most reasonable option. […] It is well-known that the binding of a diol to boronic acid often lowers the pKa of the boron species. […] Upon addition of fructose, the pKa of the boron drops to about 5.2, which ensures that most of the boron species are in the anionic tetrahedral state at physiological pH.
Since the fluorescence intensity increase upon binding with a sugar seems to be a general phenomenon, the use of 5-QBA functions as a fluorescent probe for diols was investigated. The fluorescence pH profiles of both 5-QBA alone and 5-QBA in the presence of D-fructose (0.5 M) were investigated. […] In order to assign each pKa, the ^11B NMR spectra of 5-QBA and its ester in a mixed deuterated methanol-water (1:1) solvent at different pH were obtained. Methanol was used so that the concentration of 5-QBA can be increased to 57 mM so as to allow for a meaningful NMR determination within a reasonable period of time.
To understand the structural features associated with the fluorescence intensity changes, we studied the pH profiles of the fluorescence intensity in the absence (FIG. 18) and presence of fructose and glucose at a fixed concentration (50 mM). […] The fluorescence intensity at 513 nm increased very quickly when pH increased from 1.78 to 7.04 (thin lines in FIG. 18), and then decreased in the pH range of 7.04-10.54 (thick lines in FIG. 18).

[6] = Fluorescence binding study with tagatose
Method: as §1, §2

[7] = Fluorescence binding study with fructose
Method: as §1, §2

[8] = Stability noted at isolation; assay type: physicochemical; conditions: after TFA deprotection, no further purification
Method: (7). To a solution of 6 (0.2501 g, 0.79 mmol) in DCM (20 mL) was added TFA (5 mL). The solution was stirred for 1 h, and then concentrated in vacuum to give a yellow oil.

[9] = 0.1 M phosphate buffer pH 7.4, 1:1 complex assumed
[10] = glucose 1.0 M, pH 7.4, λex 300 nm
[11] = galactose 0.50 M, pH 7.4, λex 300 nm
[12] = tagatose 0.05 M, pH 7.4, λex 300 nm
[13] = fructose 0.05 M, pH 7.4, λex 300 nm

## CN(C)c1cccc2c(B(O)O)cccc12 [Compound 7, 5-(Dimethylamino)-naphthalene-1-boronic acid]
[1]; [9]
  Association constant (Ka) with glucose: 3.6 ± 0.1 M⁻¹
[1]; [10]
  fluorescence intensity change ΔI/I0 at 433 nm: 23 (1.0)
  fluorescence intensity change ΔI/I0 at 513 nm: −0.54 (1.0)
[1]; glucose 1 M, physiological pH
  maximum fluorescence intensity increase at 433 nm: 23 fold
[2]; [9]
  Association constant (Ka) with galactose: 23.0 ± 0.2 M⁻¹
[2]; [11]
  fluorescence intensity change ΔI/I0 at 433 nm: 36 (0.50)
  fluorescence intensity change ΔI/I0 at 513 nm: −0.56 (0.50)
[2]; galactose, physiological pH
  fluorescence intensity increase at 433 nm: about 36 fold
[3]; absence of a sugar, 0.1 M phosphate buffer pH 7.4
  quantum yield φF at 513 nm: 0.07
[3]; presence of 50 mM fructose
  quantum yield φF at 433 nm: 0.23
[4]; [9]
  Association constant (Ka) with sorbitol: 337 ± 5 M⁻¹
[4]; sorbitol 0.05 M, pH 7.4, λex 300 nm
  fluorescence intensity change ΔI/I0 at 513 nm: −0.48 (0.05)
[4]; sorbitol 0.20 M, pH 7.4, λex 300 nm
  fluorescence intensity change ΔI/I0 at 433 nm: 42 (0.20)
[4]; sorbitol 200 mM, physiological pH
  fluorescence intensity increase at 433 nm: 42 fold
[5]; 0.1 M aqueous phosphate buffer with 50 mM glucose, presence of glucose, intensity at 335 nm, read-out: first apparent pKa (aniline group)
  pKa: 5.1
[5]; 0.1 M aqueous phosphate buffer, compound alone, intensity at 335 nm, read-out: first apparent pKa (aniline group)
  pKa: 5.1
[5]; 0.1 M phosphate buffer, absence of sugar, 0.1 M phosphate buffer, read-out: apparent pKa assigned to the boronic acid moiety
  pKa: ~9
other
  melting point: 95 to 96 °C
[6]; [9]
  Association constant (Ka) with tagatose: 229 ± 3 M⁻¹
[6]; [12]
  fluorescence intensity change ΔI/I0 at 433 nm: 37 (0.05)
  fluorescence intensity change ΔI/I0 at 513 nm: −0.55 (0.05)
[6]; tagatose, physiological pH
  fluorescence intensity increase at 433 nm: about 36 fold
[7]; 50 mM fructose versus no sugar
  change of the ratio I433/I513: 84 fold
[7]; [9]
  Association constant (Ka) with fructose: 311 ± 4 M⁻¹
[7]; before addition of a sugar, pH 7.4
  emission intensity ratio at 433 and 513 nm (I433/I513): 0.11
[7]; [13]
  fluorescence intensity change ΔI/I0 at 433 nm: 36 (0.05)
  fluorescence intensity change ΔI/I0 at 513 nm: −0.61 (0.05)
[7]; fructose 50 mM, phosphate buffer pH 7.4
  fluorescence intensity decrease at 513 nm: 0.55 fold
[7]; upon addition of 0.1 mM fructose
  emission intensity ratio at 433 and 513 nm (I433/I513): 0.23
[8]
  stability: not stable in neutral
